In ChEMBL document CHEMBL6109142 (J Med Chem, 2025):
Calls of active or inactive are those of the source. No cut-off for these calls is given here.

What was measured:
[1] = Half life in C57BL/6J mouse plasma at 5 mg/kg, ISIN (Intranasal) measured up to 24 hrs by LC-MS/MS analysis; type: ADME, organism-based; conditions: in vivo, inhaled_or_intranasal
SARS-CoV-2 [2] = experiment: Antiviral activity against SARS-CoV-2 EG.5.1 infected in human Calu-3 cells assessed as reduction in residual intracellular nucleocapsid value at 1 uM preincubated with cells for 3 hrs followed by viral infection and measured after 48 hrs by immunostaining based analysis; type: functional, organism-based; conditions: Severe acute respiratory syndrome coronavirus 2, time 51.0 hrs
SARS-CoV-2 [3] = experiment: Antiviral activity against SARS-CoV-2 JN.1 infected in human Calu-3 cells preincubated with cells for 3 hrs followed by viral infection and measured after 48 hrs by immunostaining based analysis; type: functional, organism-based; conditions: Severe acute respiratory syndrome coronavirus 2, JN.1, Calu-3
[4] = Bioavailability in C57BL/6J mouse at 5 mg/kg, ISIN (Intranasal) measured up to 24 hrs by LC-MS/MS analysis; type: ADME, organism-based; conditions: in vivo, inhaled_or_intranasal
Procathepsin L = Procathepsin L (Homo sapiens, UniProt P07711); experiment: Inhibition of recombinant human C-terminal 6 his-tagged Cathepsin L assessed as inhibition constant using Z-LR-AMC as peptide substrate incubated for 1 hr by fluorescence based analysis
[5] = target: T1, Transmembrane protease serine 2 (Homo sapiens, UniProt O15393); experiment: Inhibition of recombinant TMPRSS2 (unknown origin) extracted from baculovirus infected in Sf9 cells using Boc-QAR-AMC as substrate measured after 1 hr by fluorescence based analysis
[6] = target: T1, Transmembrane protease serine 2; experiment: Inhibition of full length TMPRSS2 (unknown origin) expressed in African green monkey Vero E6 cells using Boc-QAR-AMC as substrate incubated for 24 hrs by microplate reader analysis; type: cell-based
[7] = target: T1, Transmembrane protease serine 2; experiment: Inhibition of recombinant TMPRSS2 (unknown origin) extracted from baculovirus infected in Sf9 cells assessed as residual activity using Boc-QAR-AMC as substrate at 1 nM measured after 1 hr by fluorescence based analysis relative to control
SARS-CoV-2 [8] = experiment: Antiviral activity against SARS-CoV-2 EG.5.1 infected in human Calu-3 cells assessed as reduction in residual intracellular nucleocapsid value at 1 uM preincubated with cells for 3 hrs followed by viral infection and measured after 48 hrs by immunostaining based analysis relative to control; type: functional, Severe acute respiratory syndrome coronavirus 2; conditions: time 51 hrs
[9] = Half life in C57BL/6J mouse plasma at 5 mg/kg, iv measured up to 24 hrs by LC-MS/MS analysis; type: ADME, organism-based; conditions: in vivo
[10] = Toxicity in C57BL/6J mouse at 5 mg/kg, ISIN (Intranasal) measured for 24 hrs; type: organism-based; conditions: in vivo, inhaled_or_intranasal
SARS-CoV-2 [11] = experiment: Antiviral activity against SARS-CoV-2 pseudotyped with delta spike protein infected in human Calu-3 cells assessed as prevention of virus-like particle cellular entry at 300 nM preincubated with cells for 3 hrs followed by viral infection and measured after 72 hrs by ONE-Glo-Ex luciferase assay relative to control; type: functional, Severe acute respiratory syndrome coronavirus 2; conditions: time 75 hrs
[12] = target: T1, Transmembrane protease serine 2; experiment: Inhibition of recombinant das TMPRSS2 (unknown origin) extracted from baculovirus infected in Sf9 cells assessed as inhibition constant using Boc-QAR-AMC as substrate measured after 1 hr by fluorescence based analysis
Calu-3 = experiment: Cytotoxicity against human Calu-3 cells assessed as cell viability at 10 uM measured after 72 hrs by luminescence based Cell-Titer-Glo assay; type: toxicity; conditions: calu-3, 72 h
[13] = Toxicity in C57BL/6J mouse at 5 mg/kg, iv measured for 24 hrs; type: organism-based; conditions: in vivo
[14] = Drug concentration in C57BL/6J mouse plasma measured after 15 mins; type: ADME; conditions: read-out: Drug uptake
SARS-CoV-2 [15] = experiment: Antiviral activity against SARS-CoV-2 EG.5.1 infected in human Calu-3 cells preincubated with cells for 3 hrs followed by viral infection and measured after 48 hrs by immunostaining based analysis; type: functional, organism-based; conditions: Severe acute respiratory syndrome coronavirus 2, EG.5.1, Calu-3
[16] = Cytotoxicity against human Calu-3 cells assessed as cell viability measured after 72 hrs by luminescence based Cell-Titer-Glo assay; type: toxicity

T1 sequence (O15393 1-255 limits assumed): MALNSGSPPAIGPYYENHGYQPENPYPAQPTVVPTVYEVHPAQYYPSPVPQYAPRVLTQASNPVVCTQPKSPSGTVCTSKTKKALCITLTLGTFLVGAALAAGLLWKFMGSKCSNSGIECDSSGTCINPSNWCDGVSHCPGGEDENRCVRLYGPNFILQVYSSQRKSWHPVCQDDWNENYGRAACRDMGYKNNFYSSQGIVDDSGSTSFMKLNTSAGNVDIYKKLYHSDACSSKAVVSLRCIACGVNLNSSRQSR
T1 sequence (O15393 256-492 limits assumed): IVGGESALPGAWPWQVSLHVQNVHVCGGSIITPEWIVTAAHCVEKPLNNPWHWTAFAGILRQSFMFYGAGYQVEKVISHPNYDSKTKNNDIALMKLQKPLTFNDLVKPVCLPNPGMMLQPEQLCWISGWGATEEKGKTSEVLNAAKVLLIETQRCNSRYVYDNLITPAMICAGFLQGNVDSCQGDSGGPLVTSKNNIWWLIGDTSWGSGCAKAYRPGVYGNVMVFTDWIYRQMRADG
Chain of Procathepsin L (P07711 114-333 limits assumed): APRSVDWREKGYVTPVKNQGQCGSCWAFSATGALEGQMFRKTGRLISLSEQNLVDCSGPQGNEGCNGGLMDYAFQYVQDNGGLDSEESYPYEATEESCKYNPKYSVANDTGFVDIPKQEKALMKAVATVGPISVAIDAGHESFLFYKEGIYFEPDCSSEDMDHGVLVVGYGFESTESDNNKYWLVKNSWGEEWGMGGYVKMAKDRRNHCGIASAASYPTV

N=C(N)NCCC[C@H](NC(=O)[C@H](Cc1ccccc1)NC(=O)[C@H](CCC(N)=O)NC(=O)OCc1ccccc1)C(=O)c1nccs1
t1/2 [1]: 1.8 h
Activity (SARS-CoV-2 [2]): Active
EC50 (SARS-CoV-2 [3]): 0.09 nM
F [4]: 10.9%
inhibition (Procathepsin L): inactive
IC50 [5]: 0.35 nM
IC50 [6]: 0.59 nM
Activity [7]: 3%
Activity (SARS-CoV-2 [8]): 2.2%
t1/2 [9]: 4.79 h
Activity [10]: Non-toxic
Activity (SARS-CoV-2 [11]): 13%
Ki [12]: 0.03 nM
Activity (Calu-3): Non-toxic
Activity [13]: Non-toxic
concentration at 0.25 h [14]: 182 ng/mL
EC50 (SARS-CoV-2 [15]): 0.3 nM
CC50 at 72 h [16]: 110000 nM
